Read-outs that look alike come from different tables or passages of the source.

This passage reports ring closure, isolated yield results from patent publication US20260078133.

For this data set the following is noted: ester bond, 18-membered ring, DCM.

Turning to `CCn1c(-c2cc(N3CCN(C(=O)OCc4ccccc4)CC3)cnc2[C@H](C)OC)c2c3cc(ccc31)-c1csc(n1)C[C@H](NC(=O)OC(C)(C)C)C(=O)N(C)NCC(=O)OCC(C)(C)C2`, the ring closure, isolated yield (from CCn1c(-c2cc(N3CCN(C(=O)OCc4ccccc4)CC3)cnc2[C@H](C)OC)c(CC(C)(C)CO)c2cc(-c3csc(C[C@H](NC(=O)OC(C)(C)C)C(=O)N(C)NCC(=O)O)n3)ccc21, EDCI/HOBT/DIEA, 4.3 mM, 16.0 h) is 38.2%.

Turning to `CCn1c(-c2cc(N3CCN(C(=O)OCc4ccccc4)CC3)cnc2[C@H](C)OC)c2c3cc(ccc31)-c1csc(n1)C[C@H](NC(=O)OC(C)(C)C)C(=O)N1N[C@@H](C(=O)OCC(C)(C)C2)C2CC1C2`, the ring closure, isolated yield (from CCn1c(-c2cc(N3CCN(C(=O)OCc4ccccc4)CC3)cnc2[C@H](C)OC)c(CC(C)(C)CO)c2cc(-c3csc(C[C@H](NC(=O)OC(C)(C)C)C(=O)N4N[C@@H](C(=O)O)C5CC4C5)n3)ccc21, EDCI/HOBT/DIEA, 5.2 mM, 35.0 °C, 16.0 h) is 49%.

Under “EDCI/HOBT/DIEA, 6.5 mM”, “tert-butyl ((1^2S,12S)-2^1-ethyl-2^2-(2-((S)-1-methoxyethyl)pyridin-3-yl)-4,4,10-trimethyl-7,11-dioxo-2^1H-6-oxa-9,10-diaza-1(4,2)-morpholina-2(5,3)-indolacyclotridecaphane-12-yl)carbamate” displayed a ring closure, isolated yield of 44%.

On to `C=C[C@@H]1CCN2N[C@@H]1C(=O)OCC(C)(C)Cc1c(-c3cc(N4CCN(C(=O)OCc5ccccc5)CC4)cnc3[C@H](C)OC)n(CC)c3ccc(cc13)-c1csc(n1)C[C@H](NC(=O)OC(C)(C)C)C2=O`, for which the ring closure, isolated yield (from C=C[C@@H]1CCN(C(=O)[C@H](Cc2nc(-c3ccc4c(c3)c(CC(C)(C)CO)c(-c3cc(N5CCN(C(=O)OCc6ccccc6)CC5)cnc3[C@H](C)OC)n4CC)cs2)NC(=O)OC(C)(C)C)N[C@@H]1C(=O)O, EDCI/HOBT/DIEA, 10.0 mM, 16.0 h) is 36.7%.

On to `CCn1c(-c2cc(N3CCN(C4CC4)CC3)cnc2[C@H](C)OC)c2c3cc(ccc31)-c1nnc(o1)C[C@H](NC(=O)OCc1ccccc1)C(=O)N1N[C@H](C(=O)OCC(C)(C)C2)C2CC1C2`, for which the ring closure, isolated yield (from CCn1c(-c2cc(N3CCN(C4CC4)CC3)cnc2[C@H](C)OC)c(CC(C)(C)CO)c2cc(-c3nnc(C[C@H](NC(=O)OCc4ccccc4)C(=O)N4N[C@H](C(=O)O)C5CC4C5)o3)ccc21, PyBOP/DMAP, 6.6 mM, 16.0 h, 2 steps) was determined as 29%.

For `CCn1c(-c2cc(N3CCN(C)CC3)cnc2[C@H](C)OC)c2c3cc(ccc31)-c1csc(n1)C[C@H](NC(=O)OC(C)(C)C)C(=O)N1N[C@H](C(=O)OCC(C)(C)C2)C2CC1C2`, the ring closure, isolated yield (from CCn1c(-c2cc(N3CCN(C)CC3)cnc2[C@H](C)OC)c(CC(C)(C)CO)c2cc(-c3csc(C[C@H](NC(=O)OC(C)(C)C)C(=O)N4N[C@H](C(=O)O)C5CC4C5)n3)ccc21, PyBOP/DMAP, 5.7 mM, 5.0 h) stood at 48.8%.

Take `CCn1c(-c2cc(N3CCN(C(=O)OCc4ccccc4)CC3)cnc2[C@H](C)OC)c2c3cc(ccc31)N1CCO[C@@H](C[C@H](NC(=O)OC(C)(C)C)C(=O)N3N[C@H](C(=O)OCC(C)(C)C2)C2CC3C2)C1`: where the note is “from CCn1c(-c2cc(N3CCN(C(=O)OCc4ccccc4)CC3)cnc2[C@H](C)OC)c(CC(C)(C)CO)c2cc(N3CCO[C@@H](C[C@H](NC(=O)OC(C)(C)C)C(=O)N4N[C@H](C(=O)O)C5CC4C5)C3)ccc21, PyBOP/DMAP, 9.8 mM, 35.0 °C, 0.5 h”, the ring closure, isolated yield is 16%.

Compound “benzyl-4-(5-((64S,4S)-4-((tert-butoxycarbonyl) amino)-11-ethyl-10,10-dimethyl-5,7-dioxo-11H-8-oxa-62,63-diaza-1 (5,3)-indola-6(2,4)-bicyclo[3.1.1]heptana-2(1,3)-benzenacycloundecaphane-12-yl)-6-((S)-1-methoxyethyl)pyridin-3-yl)piperazine-1-carboxylate” yielded a ring closure, isolated yield (EDCI/HOBT/DIEA, 6.0 mM) of 27%.

On to `CCn1c(-c2cc(N3CCN(C)CC3)cnc2[C@H](C)OC)c2c3cc(ccc31)-c1csc(n1)C[C@H](NC(=O)OC(C)(C)C)C(=O)N(C)NCC(=O)OCC(C)(C)C2`, for which the ring closure, isolated yield (from CCn1c(-c2cc(N3CCN(C)CC3)cnc2[C@H](C)OC)c(CC(C)(C)CO)c2cc(-c3csc(C[C@H](NC(=O)OC(C)(C)C)C(=O)N(C)NCC(=O)O)n3)ccc21, PyBOP/DMAP, 0.8 mM, 0.0 °C, 1.0 h) came to 42%.

In turn, `CCn1c(-c2cc(N3CCN(C4CC4)CC3)cnc2[C@H](C)OC)c2c3cc(ccc31)-c1csc(n1)C[C@H](NC(=O)OC(C)(C)C)C(=O)N(C)NCC(=O)OCC(C)(C)C2` returned a ring closure, isolated yield (from CCn1c(-c2cc(N3CCN(C4CC4)CC3)cnc2[C@H](C)OC)c(CC(C)(C)CO)c2cc(-c3csc(C[C@H](NC(=O)OC(C)(C)C)C(=O)N(C)NCC(=O)O)n3)ccc21, PyBOP/DMAP, 5.9 mM, 0.0 °C, 1.0 h) of 27%.

The compound `CCn1c(-c2cccnc2[C@H](C)OC)c2c3cc(ccc31)N1CCO[C@@H](C[C@H](NC(=O)OC(C)(C)C)C(=O)N3N[C@H](C(=O)OCC(C)(C)C2)C2CC3C2)C1` registered a ring closure, isolated yield (from CCn1c(-c2cccnc2[C@H](C)OC)c(CC(C)(C)CO)c2cc(N3CCO[C@@H](C[C@H](NC(=O)OC(C)(C)C)C(=O)N4N[C@H](C(=O)O)C5CC4C5)C3)ccc21, PyBOP/DMAP, 2.6 mM, 16.0 h) of 96.2%.
